Measured values as given in publication PMC5218480 (PLoS ONE, 2017).

Tested on: MV-4-11 cells
Assay: Gene expression microarray analysis (Affymetrix PrimeView) and GSEA
Assay type: cell-based, human
Parameters: RFU PODN (11730768_x_at) / Fold change /veh PODN (11730768_x_at) / RFU LINC00158 (11744669_a_at) / Fold change /veh LINC00158 (11744669_a_at) / RFU DUSP10 (11751237_a_at) / Fold change /veh DUSP10 (11751237_a_at) / RFU ID3 (11757404_x_at) / Fold change /veh ID3 (11757404_x_at) / RFU PLEKHG5 (11737974_s_at) / Fold change /veh PLEKHG5 (11737974_s_at) / RFU LRRC4B (11730491_at) / Fold change /veh LRRC4B (11730491_at) / RFU GIMAP4 (11747438_a_at) / Fold change /veh GIMAP4 (11747438_a_at) / RFU KRT8 (11758183_x_at) / Fold change /veh KRT8 (11758183_x_at) / RFU CNN1 (11734310_a_at) / Fold change /veh CNN1 (11734310_a_at) / RFU VPS37D (11726825_at) / Fold change /veh VPS37D (11726825_at) / RFU C10orf10 (11716522_x_at) / Fold change /veh C10orf10 (11716522_x_at) / RFU KIR2DL2 /// KIR2DL4 /// KIR2DL5A /// KIR2DL5B /// KIR2DS1 /// KIR2DS2 /// KIR2DS3 /// KIR2DS4 /// KIR3DL3 /// KIR3DL3 /// KIR3DS1 (11738374_at) / Fold change /veh KIR2DL2 /// KIR2DL4 /// KIR2DL5A /// KIR2DL5B /// KIR2DS1 /// KIR2DS2 /// KIR2DS3 /// KIR2DS4 /// KIR3DL3 /// KIR3DL3 /// KIR3DS1 (11738374_at) / RFU C1QL1 (11718748_at) / Fold change /veh C1QL1 (11718748_at) / RFU TMPRSS4 (11747572_a_at) / Fold change /veh TMPRSS4 (11747572_a_at) / RFU HAMP (11756126_x_at) / Fold change /veh HAMP (11756126_x_at) / RFU RNFT2 (11725882_a_at) / Fold change /veh RNFT2 (11725882_a_at) / RFU NR4A2 (11747474_a_at) / Fold change /veh NR4A2 (11747474_a_at) / RFU ABCC12 (11746883_a_at) / Fold change /veh ABCC12 (11746883_a_at) / RFU TMEM136 (11760407_x_at) / Fold change /veh TMEM136 (11760407_x_at) / RFU CLDN22 /// WWC2 (11732394_at) / Fold change /veh CLDN22 /// WWC2 (11732394_at) / RFU HLA-DPB1 (11760878_x_at) / Fold change /veh HLA-DPB1 (11760878_x_at) / RFU SPINT1 (11716480_a_at) / Fold change /veh SPINT1 (11716480_a_at) / RFU GAP43 (11754022_s_at) / Fold change /veh GAP43 (11754022_s_at) / RFU A4GNT (11735810_at) / Fold change /veh A4GNT (11735810_at) / RFU PRB3 (11715151_x_at) / Fold change /veh PRB3 (11715151_x_at) / RFU TUBB4B (11761932_at) / Fold change /veh TUBB4B (11761932_at) / RFU CAPN14 (11732068_a_at) / Fold change /veh CAPN14 (11732068_a_at) / RFU TMCC2 (11721928_a_at) / Fold change /veh TMCC2 (11721928_a_at) / RFU IRGQ (11745062_a_at) / Fold change /veh IRGQ (11745062_a_at) / RFU FAM174B (11720279_a_at) / Fold change /veh FAM174B (11720279_a_at) / RFU TMPRSS4 (11748680_a_at) / Fold change /veh TMPRSS4 (11748680_a_at) / RFU FAM212B (11763350_a_at) / Fold change /veh FAM212B (11763350_a_at) / RFU PLEKHG5 (11743358_a_at) / Fold change /veh PLEKHG5 (11743358_a_at) / RFU ZSCAN30 (11745921_a_at) / Fold change /veh ZSCAN30 (11745921_a_at) / RFU CMKLR1 (11741424_a_at) / Fold change /veh CMKLR1 (11741424_a_at) / RFU LOC101060620 /// MAPK8IP1 (11723275_at) / Fold change /veh LOC101060620 /// MAPK8IP1 (11723275_at) / RFU SPTSSB (11747773_x_at) / Fold change /veh SPTSSB (11747773_x_at) / RFU PRSS12 (11739890_at) / Fold change /veh PRSS12 (11739890_at) / RFU BIN1 (11741810_x_at) / Fold change /veh BIN1 (11741810_x_at) / RFU WNT11 (11732464_a_at) / Fold change /veh WNT11 (11732464_a_at) / RFU C10orf10 (11716521_a_at) / Fold change /veh C10orf10 (11716521_a_at) / RFU C5orf56 (11738089_at) / Fold change /veh C5orf56 (11738089_at) / RFU CYB561 (11721691_x_at) / Fold change /veh CYB561 (11721691_x_at) / RFU ANKRD19P (11752326_a_at) / Fold change /veh ANKRD19P (11752326_a_at) / RFU OR2T12 /// OR2T33 /// OR2T8 (11738714_s_at) / Fold change /veh OR2T12 /// OR2T33 /// OR2T8 (11738714_s_at) / RFU VCAN (11748164_a_at) / Fold change /veh VCAN (11748164_a_at) / RFU JSRP1 (11732532_at) / Fold change /veh JSRP1 (11732532_at) / RFU KRTAP10-11 (11738290_x_at) / Fold change /veh KRTAP10-11 (11738290_x_at) / RFU MYO3A (11730013_a_at) / Fold change /veh MYO3A (11730013_a_at) / RFU EBF3 (11725865_a_at) / Fold change /veh EBF3 (11725865_a_at) / RFU CAMK2N1 (11719241_x_at) / Fold change /veh CAMK2N1 (11719241_x_at) / RFU C5orf56 (11738088_a_at) / Fold change /veh C5orf56 (11738088_a_at) / RFU OLFML3 (11715873_a_at) / Fold change /veh OLFML3 (11715873_a_at) / RFU LOC100653217 /// NTM (11731650_a_at) / Fold change /veh LOC100653217 /// NTM (11731650_a_at) / RFU MAPK11 (11762145_a_at) / Fold change /veh MAPK11 (11762145_a_at) / RFU FIZ1 (11724087_x_at) / Fold change /veh FIZ1 (11724087_x_at) / RFU OASL (11726364_x_at) / Fold change /veh OASL (11726364_x_at) / RFU SOX15 (11748057_x_at) / Fold change /veh SOX15 (11748057_x_at) / RFU CD79A (11719716_a_at) / Fold change /veh CD79A (11719716_a_at) / RFU HIST1H1D (11736915_at) / Fold change /veh HIST1H1D (11736915_at) / RFU CASKIN2 (11723855_a_at) / Fold change /veh CASKIN2 (11723855_a_at) / RFU LOC730098 (11760151_x_at) / Fold change /veh LOC730098 (11760151_x_at) / RFU OR4N2 (11742367_at) / Fold change /veh OR4N2 (11742367_at) / RFU PRRT2 (11749266_a_at) / Fold change /veh PRRT2 (11749266_a_at) / RFU SNX32 (11753110_a_at) / Fold change /veh SNX32 (11753110_a_at) / RFU CDHR5 (11726645_a_at) / Fold change /veh CDHR5 (11726645_a_at) / RFU RCAN1 (11760418_a_at) / Fold change /veh RCAN1 (11760418_a_at) / RFU FAM167A (11723789_a_at) / Fold change /veh FAM167A (11723789_a_at) / RFU FAM26E (11764081_at) / Fold change /veh FAM26E (11764081_at) / RFU ISYNA1 (11749810_s_at) / Fold change /veh ISYNA1 (11749810_s_at) / RFU ACY1 (11761880_at) / Fold change /veh ACY1 (11761880_at) / RFU 11764098_at / Fold change /veh 11764098_at / RFU SAMD14 (11745864_x_at) / Fold change /veh SAMD14 (11745864_x_at) / RFU NPB (11741838_a_at) / Fold change /veh NPB (11741838_a_at) / RFU TMPRSS6 (11731388_a_at) / Fold change /veh TMPRSS6 (11731388_a_at) / RFU KRTAP10-2 (11738614_at) / Fold change /veh KRTAP10-2 (11738614_at) / RFU ARHGAP8 /// PRR5-ARHGAP8 (11727945_x_at) / Fold change /veh ARHGAP8 /// PRR5-ARHGAP8 (11727945_x_at) / RFU KRTAP5-7 /// NADSYN1 (11734609_at) / Fold change /veh KRTAP5-7 /// NADSYN1 (11734609_at) / RFU RASL12 (11751679_a_at) / Fold change /veh RASL12 (11751679_a_at) / RFU CDKN2B (11736163_a_at) / Fold change /veh CDKN2B (11736163_a_at) / RFU PRF1 (11729649_at) / Fold change /veh PRF1 (11729649_at) / RFU, ZNF638 /// ZNF638-IT1 / Fold change vs veh, ZNF638 /// ZNF638-IT1 / RFU, PANK3 / Fold change vs veh, PANK3 / RFU, SH3YL1 / Fold change vs veh, SH3YL1 / RFU, ZEB2 / Fold change vs veh, ZEB2 / RFU, NRIP1 / Fold change vs veh, NRIP1 / RFU, PTTG1IP / Fold change vs veh, PTTG1IP / RFU, CAPN2 / Fold change vs veh, CAPN2 / RFU, MED14 / Fold change vs veh, MED14 / RFU, SNORA58 / Fold change vs veh, SNORA58 / RFU, C1orf63 / Fold change vs veh, C1orf63 / RFU, LRRFIP1 / Fold change vs veh, LRRFIP1 / RFU, NDUFAF7 / Fold change vs veh, NDUFAF7 / RFU, SLC12A2 / Fold change vs veh, SLC12A2 / RFU, IBTK / Fold change vs veh, IBTK / RFU, ESF1 / Fold change vs veh, ESF1 / Fold change vs veh, TMEM50B / RFU, TAOK1 / Fold change vs veh, TAOK1 / RFU, ACBD3 / Fold change vs veh, ACBD3 / RFU, TMA16 / Fold change vs veh, TMA16 / RFU, RWDD3 / Fold change vs veh, RWDD3 / RFU, BCAT1 / Fold change vs veh, BCAT1 / RFU, EDEM3 / Fold change vs veh, EDEM3 / RFU, TMEM33 / Fold change vs veh, TMEM33 / RFU, WDR75 / Fold change vs veh, WDR75 / RFU, AHCTF1 / Fold change vs veh, AHCTF1 / RFU, TFRC / Fold change vs veh, TFRC / RFU, ZDHHC17 / Fold change vs veh, ZDHHC17 / RFU, NOM1 / Fold change vs veh, NOM1 / RFU, ARL8B / Fold change vs veh, ARL8B / RFU, ZBTB11 / Fold change vs veh, ZBTB11 / RFU, TAMM41 / Fold change vs veh, TAMM41 / RFU, KIAA1704 /// LOC100996395 / Fold change vs veh, KIAA1704 /// LOC100996395 / RFU, ING1 / Fold change vs veh, ING1 / RFU, TRMT61B / Fold change vs veh, TRMT61B / RFU, FUBP3 / Fold change vs veh, FUBP3 / RFU, TP53 / Fold change vs veh, TP53 / RFU, TNKS2 / Fold change vs veh, TNKS2 / RFU, ZFP14 / Fold change vs veh, ZFP14 / RFU, ACTR2 / Fold change vs veh, ACTR2 / RFU, PPP3R1 / Fold change vs veh, PPP3R1 / RFU, PIK3R1 / Fold change vs veh, PIK3R1 / RFU, HNRNPA1 / Fold change vs veh, HNRNPA1 / RFU, RNF170 / Fold change vs veh, RNF170 / RFU, ZNF28 / Fold change vs veh, ZNF28 / RFU, RNGTT / Fold change vs veh, RNGTT / RFU, OGT / Fold change vs veh, OGT / RFU, BRD1 / Fold change vs veh, BRD1 / RFU, MARS / Fold change vs veh, MARS / RFU, ZNF655 / Fold change vs veh, ZNF655 / RFU, FAHD1 / Fold change vs veh, FAHD1 / RFU, BDP1 / Fold change vs veh, BDP1 / RFU, LRRCC1 / Fold change vs veh, LRRCC1 / RFU, ARID1A / Fold change vs veh, ARID1A / RFU, ZNF146 / Fold change vs veh, ZNF146 / RFU, ZNF330 / Fold change vs veh, ZNF330 / RFU, GPN3 / Fold change vs veh, GPN3 / RFU, C9orf123 / Fold change vs veh, C9orf123 / RFU, N4BP2L2 / Fold change vs veh, N4BP2L2 / RFU, ARFIP1 / Fold change vs veh, ARFIP1 / RFU, FAM179B / Fold change vs veh, FAM179B / RFU, BCL10 / Fold change vs veh, BCL10 / RFU, UHRF1BP1L / Fold change vs veh, UHRF1BP1L / RFU, BET1 / Fold change vs veh, BET1 / RFU, CNOT2 / Fold change vs veh, CNOT2 / RFU, ZNF268 / Fold change vs veh, ZNF268 / Fold change vs veh, ZNF507 / RFU, DGCR2 / Fold change vs veh, DGCR2 / RFU, WDSUB1 / Fold change vs veh, WDSUB1 / Fold change vs veh, HSP90B1 /// MIR3652 / RFU, ADSS / Fold change vs veh, ADSS / RFU, GK / Fold change vs veh, GK / RFU, ZNF148 / Fold change vs veh, ZNF148 / RFU, TAF9 / Fold change vs veh, TAF9 / RFU, SLC1A5 / Fold change vs veh, SLC1A5 / RFU, SLMO2 / Fold change vs veh, SLMO2 / RFU, ABCC4 / Fold change vs veh, ABCC4 / RFU, LOC101060439 /// RAP1B / Fold change vs veh, LOC101060439 /// RAP1B / RFU, RFX7 / Fold change vs veh, RFX7 / RFU, GTPBP10 / Fold change vs veh, GTPBP10 / RFU, CNEP1R1 / Fold change vs veh, CNEP1R1 / RFU, BIVM-ERCC5 /// ERCC5 / Fold change vs veh, BIVM-ERCC5 /// ERCC5 / RFU, ILF3 / Fold change vs veh, ILF3 / RFU 11762660_at / Fold change /veh 11762660_at / RFU VCAN (11757783_s_at) / Fold change /veh VCAN (11757783_s_at) / RFU DDX43 (11728927_at) / Fold change /veh DDX43 (11728927_at) / RFU KRT8 (11758188_x_at) / Fold change /veh KRT8 (11758188_x_at) / RFU NKD1 (11759106_at) / Fold change /veh NKD1 (11759106_at) / RFU SRD5A1 (11742802_a_at) / Fold change /veh SRD5A1 (11742802_a_at) / RFU TPSAB1 /// TPSB2 (11721975_s_at) / Fold change /veh TPSAB1 /// TPSB2 (11721975_s_at) / RFU GSTM3 (11746129_a_at) / Fold change /veh GSTM3 (11746129_a_at) / RFU IL23R (11737362_x_at) / Fold change /veh IL23R (11737362_x_at) / RFU TMEM51 (11727254_a_at) / Fold change /veh TMEM51 (11727254_a_at) / RFU PIWIL2 (11732686_x_at) / Fold change /veh PIWIL2 (11732686_x_at) / RFU ORM1 (11744905_x_at) / Fold change /veh ORM1 (11744905_x_at) / RFU CCDC152 (11743942_at) / Fold change /veh CCDC152 (11743942_at) / RFU ECM1 (11717891_a_at) / Fold change /veh ECM1 (11717891_a_at) / RFU IL23R (11748794_a_at) / Fold change /veh IL23R (11748794_a_at) / RFU TNFAIP8L3 (11732012_x_at) / Fold change /veh TNFAIP8L3 (11732012_x_at) / RFU MBOAT4 (11741988_at) / Fold change /veh MBOAT4 (11741988_at) / RFU 11764193_at / Fold change /veh 11764193_at / RFU TMEM53 (11763286_at) / Fold change /veh TMEM53 (11763286_at) / RFU MAGEB2 (11727129_at) / Fold change /veh MAGEB2 (11727129_at) / RFU TMEM200A (11744735_a_at) / Fold change /veh TMEM200A (11744735_a_at) / RFU CCDC152 (11751479_a_at) / Fold change /veh CCDC152 (11751479_a_at) / RFU FAM211A (11726209_a_at) / Fold change /veh FAM211A (11726209_a_at) / RFU RGS16 (11746705_a_at) / Fold change /veh RGS16 (11746705_a_at) / RFU VCAN (11755009_s_at) / Fold change /veh VCAN (11755009_s_at) / RFU RHOB (11743442_s_at) / Fold change /veh RHOB (11743442_s_at) / RFU RGS16 (11720943_a_at) / Fold change /veh RGS16 (11720943_a_at) / RFU RGS16 (11720944_at) / Fold change /veh RGS16 (11720944_at) / RFU, VPS4B / Fold change vs veh, VPS4B / RFU, CREB1 / Fold change vs veh, CREB1 / RFU, DNAJC13 / Fold change vs veh, DNAJC13 / RFU, GNAQ / Fold change vs veh, GNAQ / RFU, CDK5R1 / Fold change vs veh, CDK5R1 / RFU, ZRANB3 / Fold change vs veh, ZRANB3 / RFU, CUL4A / Fold change vs veh, CUL4A / RFU, CCNY / Fold change vs veh, CCNY / RFU, UFL1 / Fold change vs veh, UFL1 / RFU, COG3 / Fold change vs veh, COG3 / RFU, DIAPH2 / Fold change vs veh, DIAPH2 / RFU, SKA2 / Fold change vs veh, SKA2 / RFU, AFF3 / Fold change vs veh, AFF3 / RFU, LMF1 / Fold change vs veh, LMF1 / RFU, IPO11 / Fold change vs veh, IPO11 / RFU, DFFB / Fold change vs veh, DFFB / RFU, FOXP1 / Fold change vs veh, FOXP1 / RFU, CARD8 / Fold change vs veh, CARD8 / RFU, STRN3 / Fold change vs veh, STRN3 / RFU, ADK / Fold change vs veh, ADK / RFU, RASSF2 / Fold change vs veh, RASSF2 / RFU, WIPF1 / Fold change vs veh, WIPF1 / RFU, LARP1B / Fold change vs veh, LARP1B / RFU, RASA1 / Fold change vs veh, RASA1 / RFU, RB1 / Fold change vs veh, RB1 / RFU, PPFIA1 / Fold change vs veh, PPFIA1 / RFU, MAT2A / Fold change vs veh, MAT2A / RFU, CCT5 / Fold change vs veh, CCT5 / RFU, WDR92 / Fold change vs veh, WDR92 / RFU, CUX1 / Fold change vs veh, CUX1 / RFU, TTC7A / Fold change vs veh, TTC7A / RFU, TMEM135 / Fold change vs veh, TMEM135 / RFU, DEPTOR / Fold change vs veh, DEPTOR / RFU, CPM / Fold change vs veh, CPM / RFU, DNAJB6 / Fold change vs veh, DNAJB6 / RFU, CACNA2D3 / Fold change vs veh, CACNA2D3 / RFU, DTX4 / Fold change vs veh, DTX4 / RFU, TFCP2 / Fold change vs veh, TFCP2 / RFU, GMCL1 /// GMCL1P1 / Fold change vs veh, GMCL1 /// GMCL1P1 / RFU, AEBP2 / Fold change vs veh, AEBP2 / RFU, SNHG1 /// SNORD22 /// SNORD25 /// SNORD26 /// SNORD27 /// SNORD28 /// SNORD29 /// SNORD31 / Fold change vs veh, SNHG1 /// SNORD22 /// SNORD25 /// SNORD26 /// SNORD27 /// SNORD28 /// SNORD29 /// SNORD31 / Fold change (Aza/veh), C12orf56 (ProbeSet 11735607_a_at) / Fold change (ACY-1035/veh), C12orf56 (ProbeSet 11735607_a_at) / Fold change (Aza/veh), FGFR1OP (ProbeSet 11751329_s_at) / Fold change (ACY-1035/veh), FGFR1OP (ProbeSet 11751329_s_at) / Fold change (Aza/veh), VPS36 (ProbeSet 11739960_a_at) / Fold change (ACY-1035/veh), VPS36 (ProbeSet 11739960_a_at) / RFU SYPL1 (11715823_x_at) / Fold change /veh SYPL1 (11715823_x_at) / RFU IGFBP7 (11715501_s_at) / Fold change /veh IGFBP7 (11715501_s_at) / RFU REEP3 (11722064_at) / Fold change /veh REEP3 (11722064_at) / RFU IGLL1 (11728026_x_at) / Fold change /veh IGLL1 (11728026_x_at): dose or concentration left out as unconfirmed
Conditions: MV-4-11 cells, 48 hours

In the case of `Nc1ncn([C@@H]2O[C@H](CO)[C@@H](O)[C@H]2O)c(=O)n1` [azacitidine], the “Fold change /veh LOC101060620 /// MAPK8IP1 (11723275_at)” value was 0.98.
